Data reported in patent US20210308089A1, “METHODS OF TREATING AND/OR PREVENTING VIRAL INFECTIONS AND/OR DISEASES CAUSED BY VIRUSES IN A SUBJECT IN NEED THEREOF” (priority 2020, published 2021).

System: patients of the REDUCE-IT and earlier EPA placebo-controlled trials
Assay: Example 3: adverse events by risk ratio, icosapent ethyl vs placebo (candidate categories; infectious disease terms of interest)
Details: R-I

CC/C=C\C/C=C\C/C=C\C/C=C\C/C=C\CCCC(=O)OCC [icosapent ethyl, eicosapentaenoic acid ethyl ester]
NNT: Carotid bruit (AE table): 315
NNT: Cholestasis (AE table): −1.67e+07
NNT: Chrohn's Disease (AE table): 2045
NNT: Cognitive Decline: Attention disorders and disturbances (AE table): −8362005
NNT: Cognitive Decline: Cognitive and attention disorders and disturbances (AE table): −8362005
NNT: Cough (AE table): −69394
NNT: Decreased Appetite (AE table): −215
NNT: Deep Venous Thromboembolism (AE table): 1364
NNT: Depression: Depressed mood disorders and disturbances (AE table): −340
NNT: Depression: Depressive disorders (AE table): −314
NNT: Depression: Depressive disorders - Agitated depression (AE table): −2044
NNT: Depression: Depressive disorders - Depression (AE table): −408
NNT: Depression: Depressive disorders - Major depression (AE table): −2044
NNT: Depression: Depressive disorders - Persistent depressive disorder (AE table): −4088
NNT: Depression: Mood alterations - Depressed mood (AE table): −3344802
NNT: Depression: Mood alterations - Depressive symptom (AE table): 4091
NNT: Depression: Mood alterations with depressive symptoms (AE table): 4096
NNT: Dermatitis psoriasiform (AE table): −4089
NNT: Dermatitis, allergic (AE table): 454
NNT: Diabetic Nephropathy (AE table): 4100
NNT: ESRD (AE table): 4092
NNT: Ear infection (AE table): 585
NNT: Embolism and Thrombosis (AE table): −1358
NNT: Emphysema (AE table): 511
NNT: Epilepsy (AE table): −1.67e+07
NNT: Erectile dysfunction (AE table): 232
NNT: Furuncle (AE table): 818
NNT: Gastroenteritis, viral (AE table): 372
NNT: Gastroesophageal reflux (AE table): 682
NNT: Gingivitis (AE table): 818
NNT: Glomerulonephritis and Nephrotic Syndrome (AE table): 1023
NNT: Guttate psoriasis (AE table): −4089
NNT: Helicobacter infection (AE table): 1023
NNT: Hepatitis C (AE table): −4089
NNT: Herpes Zoster (AE table): 1371
NNT: Herpes simplex (AE table): 1364
NNT: Hyperglycemia (AE table): 186
NNT: Hyperkalemia (AE table): 178
NNT: Hypertension (AE table): 171
NNT: Hypertensive Crisis (AE Table): 315
NNT: Hypokalemia (AE table): −815
NNT: Hypomagnesemia (AE table): 292
NNT: Infected bite (AE table): 2046
NNT: Influenza (AE table): 515
NNT: Influenza like illness (AE table): 1024
NNT: Jaundice cholestatic (AE table): −1022
NNT: Large intestine polyps (AE table): 511
NNT: Limb Fractures and Dislocations (AE table): 1024
NNT: Lupus (AE table): 4090
NNT: Microalbuminuria (AE table): 372
NNT: Migraine (AE table): −584
NNT: Mucosal inflammation (AE table): 2046
NNT: Multiple Sclerosis (AE table): 4090
NNT: Muscle spasms (AE table): 95
NNT: NASH (AE table): 818
NNT: NASH for b/l NFS >0.675 (AE table): 273
NNT: NASH+Hepatic Steatosis for NFS >0.675 (AE table): 209
NNT: Nasopharyngitis, Mild Severity (AE table): 516
NNT: Nephrolithiasis (AE table): −1017
NNT: Nephropathies (AE table): 455
NNT: Nephrotic Syndrome (AE table): 4090
NNT: Orthopnea (AE table): 1023
NNT: PTSD (AE table): 4092
NNT: Pancytopenia (AE table): 1023
NNT: Pneumonia (AE table): 293
NNT: Proteinuria (AE table): 455
NNT: Psoriasis (AE table): −341
NNT: Psoriatic Conditions (AE table): −292
NNT: Psychosis: Psychotic disorder NEC (AE table): 4091
NNT: Pulmonary Edema (AE table): 511
NNT: Respiratory Failure (AE table): 2050
NNT: Respiratory tract infection (AE table): 1368
NNT: Rheumatoid Arthritis (AE table): 1363
NNT: Rhinitis (AE table): 682
NNT: Schizophrenia NEC (AE table): 4091
NNT: Sepsis (AE table): 455
NNT: Severe chronic obstructive pulmonary disease (AE table): 1365
NNT: Severe dermatitis, allergic (AE table): 1363
NNT: Severe gastroenteritis (AE table): 1023
NNT: Severe sepsis (AE table): 585
NNT: Severe systemic inflammatory response syndrome (AE table): 818
NNT: Severe urinary tract infection (AE table): 585
NNT: Systemic inflammatory response syndrome (AE table): 682
NNT: Tooth infection (AE table): 455
NNT: Ulcerative Colitis (AE table): 4090
NNT: Upper respiratory tract infection (AE table): 516
NNT: Vascular hypertensive disorder (AE table): 124
NNT: Vulvovaginal mycotic infection (AE table): 682
NNT: Wheezing (AE table): 315
Risk Ratio (95% CI): ADHD (AE table): 1.000 (0.141 to 7.097) −1
Risk Ratio (95% CI): Allergic sinusitis (AE table): 0.500 (0.092 to 2.729) 3
Risk Ratio (95% CI): Alzheimer's Disease (AE table): 1.000 (0.290 to 3.452) −1
Risk Ratio (95% CI): Asthma (AE table): 1.076 (0.742 to 1.560) −1
Risk Ratio (95% CI): Atelectasis (AE table): 0.500 (0.243 to 1.030) 3
Risk Ratio (95% CI): Bipolar Disease (AE table): 0.333 (0.035 to 3.204) 4
Risk Ratio (95% CI): Blood CPK increased (AE table): 0.684 (0.485 to 0.964) 2
Risk Ratio (95% CI): Blood glucose increased (AE table): 0.400 (0.126 to 1.275) 3
Risk Ratio (95% CI): Bone Fractures (AE table): 2.000 (0.181 to 22.053) −3
Risk Ratio (95% CI): Bronchiectasis (AE table): 0.500 (0.125 to 1.998) 3
Risk Ratio (95% CI): Bronchitis chronic (AE table): 0.667 (0.273 to 1.630) 2
Risk Ratio (95% CI): CKD (AE table): 1.123 (0.766 to 1.646) −1
Risk Ratio (95% CI): COPD (AE table): 1.084 (0.837 to 1.405) −1
Risk Ratio (95% CI): Carotid bruit (AE table): 0.435 (0.207 to 0.913) 3
Risk Ratio (95% CI): Cholestasis (AE table): 1.000 (0.063 to 15.986) −1
Risk Ratio (95% CI): Chrohn's Disease (AE table): 0.333 (0.035 to 3.204) 4
Risk Ratio (95% CI): Cognitive Decline: Attention disorders and disturbances (AE table): 1.000 (0.141 to 7.097) −1
